According to BindingDB's records for doi:10.1016/j.bmcl.2023.129387 (The University of Queensland, 2023):

Target: Metallo-beta-lactamase type 2 (Klebsiella pneumoniae, UniProt C7C422)
Assay: Competitive inhibition of NDM-1 (unknown origin) using penicillin G as substrate by Michaelis-Menten equation based kinetic analysis

Sequence of Metallo-beta-lactamase type 2 (C7C422 whole entry): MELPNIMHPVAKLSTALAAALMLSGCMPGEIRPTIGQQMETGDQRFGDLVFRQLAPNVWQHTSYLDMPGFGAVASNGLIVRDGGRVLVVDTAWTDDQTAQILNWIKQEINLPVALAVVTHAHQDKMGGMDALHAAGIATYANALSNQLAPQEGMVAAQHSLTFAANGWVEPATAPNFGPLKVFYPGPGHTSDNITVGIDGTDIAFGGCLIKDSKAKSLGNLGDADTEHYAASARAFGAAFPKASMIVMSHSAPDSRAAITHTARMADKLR

| Ki [µM] | Compound |
| --- | --- |
| 9 | N#Cc1c(-c2ccccc2)c(-c2ccccc2)n(Cc2ccccc2)c1NC(=O)c1ccccc1 |
| 3.2 | N#Cc1c(-c2ccccc2)c(-c2ccccc2)n(Cc2ccccc2)c1/N=C/c1ccccc1 |
| 1.3 | N#Cc1c(-c2ccccc2)c(-c2ccccc2)n(Cc2ccccc2)c1/N=C/c1ccc(O)cc1 |
| 34 | COC(=O)c1ccc(/C=N/c2c(C#N)c(-c3ccccc3)c(-c3ccccc3)n2Cc2ccccc2)cc1 |
| 1.7 | N#Cc1c(-c2ccccc2)c(-c2ccccc2)n(Cc2ccccc2)c1/N=C/c1cccs1 |
